By IC50 is commonly meant the midpoint of a concentration-inhibition curve. Read a high IC50 as weaker potency in that assay.

In US9765057B2, “3-ester-4 substituted orexin receptor antagonists” (MERCK SHARP & DOHME CORP., priority 2012, dated 2017) one finds IC50 data, which are given here for 17 compounds.

In one experiment the target is human orexin-2 receptor (Homo sapiens (Human), UniProt O43614). The experiment can be described thus: FLIPR Ca2+ Flux Assay, hOX2R. The settings on record: CHO cells expressing the human orexin-2 receptor; agonist 70 pM Ala-6,12 orexin-A. Type of experiment: cell-based. The method, then: In a typical experiment the OX1 and OX2 receptor antagonistic activity of the compounds of the present invention was determined in accordance with the following experimental method. For intracellular calcium measurements, Chinese hamster ovary (CHO) cells expressing the rat orexin-1 receptor or the human orexin-2 receptor, are grown in Iscove's modified DMEM containing 2 mM L-glutamine, […], 1% hypoxanthine-thymidine supplement, 100 U/ml penicillin, 100 μg/ml streptomycin and 10% heat-inactivated fetal calf serum (FCS). The cells are seeded at 20,000 cells/well into Becton-Dickinson black 384-well clear bottom sterile plates coated with poly-D-lysine. All reagents were from GIBCO-Invitrogen Corp. The seeded plates are incubated overnight at 37° C. and 5% CO2. Ala-6,12 human orexin-A as the agonist is prepared as a 1 mM stock solution in 1% bovine serum albumin (BSA) and diluted in assay buffer (HBSS containing 20 mM HEPES, 0.1% BSA and 2.5 mM probenecid, pH7.4) for use in the assay at a final concentration of 70 pM. Test compounds are prepared as 10 mM stock solution in DMSO, then diluted in 384-well plates, first in DMSO, then assay buffer. On the day of the assay, cells are washed 3 times with 100 μl assay buffer and then incubated for 60 min (37° C., 5% CO2) in 60 μl assay buffer containing 1 μM Fluo-4AM ester, 0.02% pluronic acid, and 1% BSA. The dye loading solution is then aspirated and cells are washed 3 times with 100 μl assay buffer. 30 μl of that same buffer is left in each well. Within the Fluorescent Imaging Plate Reader (FLIPR, Molecular Devices), test compounds are added to the plate in a volume of 25 μl, incubated for 5 min and finally 25 μl of agonist is added. Fluorescence is measured for each well at 1 second intervals for 5 minutes and the height of each fluorescence peak is compared to the height of the fluorescence peak induced by 70 pM Ala-6,12 orexin-A with buffer in place of antagonist. For each antagonist, IC50 value (the concentration of compound needed to inhibit 50% of the agonist response) is determined Alternatively, compound potency can be assessed by a radioligand binding assay (described in Bergman et. al. Bioorg. Med. Chem. Lett. 2008, 18, 1425-1430) in which the inhibition constant (Ki) is determined in membranes prepared from CHO cells expressing either the OX1 or OX2 receptor. The intrinsic orexin receptor antagonist activity of a compound which may be used in the present invention may be determined by these assays.
Chain of human orexin-2 receptor (O43614 whole entry): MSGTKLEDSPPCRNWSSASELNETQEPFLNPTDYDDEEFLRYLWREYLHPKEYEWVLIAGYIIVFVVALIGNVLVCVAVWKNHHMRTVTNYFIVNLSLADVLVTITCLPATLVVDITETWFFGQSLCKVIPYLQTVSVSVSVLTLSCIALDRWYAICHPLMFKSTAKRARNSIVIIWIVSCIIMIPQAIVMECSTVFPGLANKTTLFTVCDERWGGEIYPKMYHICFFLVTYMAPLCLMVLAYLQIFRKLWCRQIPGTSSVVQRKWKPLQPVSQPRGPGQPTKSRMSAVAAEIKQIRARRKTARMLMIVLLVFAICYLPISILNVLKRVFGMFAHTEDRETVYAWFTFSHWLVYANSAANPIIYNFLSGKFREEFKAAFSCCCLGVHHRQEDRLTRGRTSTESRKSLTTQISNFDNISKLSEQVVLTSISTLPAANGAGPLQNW
On the technique in general: Calcium assays in cells follow changes in intracellular calcium, usually with a dye or a luminescent sensor.

The target of a further experiment is hOX1R (Homo sapiens, UniProt O43613). The experiment can be described thus: FLIPR Ca2+ Flux Assay, hOX1R. The settings on record: CHO cells expressing orexin-1 receptor; agonist 70 pM Ala-6,12 orexin-A. Format: cell-based.

Consider `COC(=O)c1c(SC)ccnc1O[C@@H]1CC[C@@H](C)N(C(=O)c2ccccc2-n2nccn2)C1` [Example 3, methyl 4-(methylsulfanyl)-2-{[(3R,6R)-6-methyl-1-{[2-(2H-1,2,3-triazol-2-yl)phenyl]carbonyl}-piperidin-3-yl]oxy}pyridine-3-carboxylate], for which the IC50 at human orexin-2 receptor amounted to 10 nM; on hOX1R it was 618 nM.

As to `COC(=O)c1c(SC)ccnc1O[C@@H]1CC[C@@H](C)N(C(=O)c2cc(F)ccc2-c2ncccn2)C1` [Example 5, methyl 2-({(3R,6R)-1-[(5-fluoro-2-pyrimidin-2-ylphenyl)carbonyl]-6-methylpiperidin-3-yl}oxy)-4-(methylsulfanyl)pyridine-3-carboxylate], the half-maximal inhibitory concentration (IC50) on human orexin-2 receptor is 72.9 nM; on hOX1R, 880 nM.

Take `CCOC(=O)c1c(CC)ccnc1O[C@@H]1CC[C@@H](C)N(C(=O)c2ccccc2-n2nccn2)C1` [Example 17, Ethyl 4-ethyl-2-{[(3R,6R)-6-methyl-1-{[2-(2H-1,2,3-triazol-2-yl)phenyl]carbonyl}piperidin-3-yl]oxy}pyridine-3-carboxylate]: the IC50 at human orexin-2 receptor was 40.4 nM; at hOX1R, 172 nM.

On to `COC(=O)c1c(O[C@@H]2CC[C@@H](C)N(C(=O)c3ccccc3-n3nccn3)C2)cccc1C(C)C` [Example 16, methyl 2-(1-methylethyl)-6-{[(3R,6R)-6-methyl-1-{[2-(2H-1,2,3-triazol-2-yl)phenyl]carbonyl}-piperidin-3-yl]oxy}benzoate], for which the IC50 on human orexin-2 receptor is 68.8 nM; on hOX1R, 1460 nM.

As for `COC(=O)c1c(C2CC2)ccnc1O[C@@H]1CC[C@@H](C)N(C(=O)c2ccccc2-n2nccn2)C1` [Example 13, methyl 4-cyclopropyl-2-{[(3R,6R)-6-methyl-1-{[2-(2H-1,2,3-triazol-2-yl)phenyl]carbonyl}piperidin-3-yl]oxy}pyridine-3-carboxylate], the 50% inhibitory concentration (IC50) is 530 nM on human orexin-2 receptor and 803 nM on hOX1R.

In the case of `COC(=O)c1c(N2CCC2)ccnc1O[C@@H]1CC[C@@H](C)N(C(=O)c2ccccc2-n2nccn2)C1` [Example 8, Methyl 4-azetidin-1-yl-2-{[(3R,6R)-6-methyl-1-{[2-(2H-1,2,3-triazol-2-yl)phenyl]carbonyl}piperidin-3-yl]oxy}pyridine-3-carboxylate], the IC50 on human orexin-2 receptor was found to be 33 nM; at hOX1R it was 743 nM.

With `COC(=O)c1c(C(C)(C)C)ccnc1O[C@@H]1CC[C@@H](C)N(C(=O)c2ccccc2-n2nccn2)C1` [Example 11], the IC50 at human orexin-2 receptor was 1010 nM; at hOX1R, 2050 nM.

As to `COC(=O)c1c(C)cccc1O[C@@H]1CC[C@@H](C)N(C(=O)c2ccccc2-n2nccn2)C1` [Example 15, methyl 2-methyl-6-{[(3R,6R)-6-methyl-1-{[2-(2H-1,2,3-triazol-2-yl)phenyl]carbonyl}piperidin-3-yl]oxy}benzoate], the IC50 is 36.2 nM on human orexin-2 receptor and 1930 nM at hOX1R.

For the compound `CCc1ccnc(O[C@@H]2CC[C@@H](C)N(C(=O)c3ccccc3-n3nccn3)C2)c1C(=O)OC` [Example 10, Methyl 4-ethyl-2-{[(3R,6R)-6-methyl-1-{[2-(2H-1,2,3-triazol-2-yl)phenyl]carbonyl}piperidin-3-yl]oxy}pyridine-3-carboxylate], the half-inhibitory concentration (IC50) on human orexin-2 receptor came out at 21.1 nM; on hOX1R, 74.9 nM.

As for `COC(=O)c1c(C)ccnc1O[C@@H]1CC[C@@H](C)N(C(=O)c2ccccc2-n2nccn2)C1` [Example 2, methyl 4-methy1-2-{[(3R,6R)-6-methyl-1-{[2-(2H-1,2,3-triazol-2-yl)phenyl]carbonyl}piperidin-3-yl]oxy}pyridine-3-carboxylate], the IC50 on human orexin-2 receptor amounted to 17.4 nM; at hOX1R, 86.2 nM.

Consider `COC(=O)c1c(SC)ccnc1O[C@@H]1CC[C@@H](C)N(C(=O)c2ccccc2-c2ncccn2)C1` [Example 4, Methyl 2-({(3R,6R)-6-methyl-1-{(2-pyrimidin-2ylphenyl)carbonyl}piperidin-3yl}oxy)-4-(methylsulfanyl)pyridine-3-carboxylate], for which the IC50 at human orexin-2 receptor was determined as 28.3 nM; on hOX1R, 554 nM.

In the case of `COC(=O)c1c(N2CCN(C)CC2)ccnc1O[C@@H]1CC[C@@H](C)N(C(=O)c2ccccc2-n2nccn2)C1` [Example 9, methyl 4-(4-methylpiperazin-1-yl)-2-{[(3R,6R)-6-methyl-1-{[2-(2H-1,2,3-triazol-2-yl)phenyl]carbonyl}-piperidin-3-yl]oxy}pyridine-3-carboxylate], the figures for the half-inhibitory concentration (IC50) at human orexin-2 receptor and at hOX1R were 1530 nM and 10000 nM, respectively.

Turning to `COC(=O)c1c(C(C)C)ccnc1O[C@@H]1CC[C@@H](C)N(C(=O)c2ccccc2-n2nccn2)C1` [Example 12, methyl 4-(1-methylethyl)-2-{[(3R,6R)-6-methyl-1-{[2-(2H-1,2,3-triazol-2-yl)phenyl]carbonyl}-piperidin-3-yl]oxy}pyridine-3-carboxylate], the IC50 at human orexin-2 receptor came out at 5.46 nM; on hOX1R, 80 nM.

On to `COC(=O)c1c(SC)ccnc1O[C@@H]1CC[C@@H](C)N(C(=O)c2cccc(F)c2-c2ncccn2)C1` [Example 7, methyl 2-({(3R,6R)-1-[(3-fluoro-2-pyrimidin-2-ylphenyl)carbonyl]-6-methylpiperidin-3-yl}oxy)-4-(methylsulfanyl)pyridine-3-carboxylate], for which the IC50 at human orexin-2 receptor is 37.8 nM; on hOX1R, 1030 nM.

`COC(=O)c1c(SC)ccnc1O[C@@H]1CC[C@@H](C)N(C(=O)c2ccc(F)cc2-c2ncccn2)C1` [Example 6, methyl 2-({(3R,6R)-1-[(4-fluoro-2-pyrimidin-2-ylphenyl)carbonyl]-6-methylpiperidin-3-yl}oxy)-4-(methylsulfanyl)pyridine-3-carboxylate]: the 50% inhibitory concentration (IC50) on human orexin-2 receptor was 31.6 nM; at hOX1R it was 888 nM.

Turning to `CCOC(=O)c1c(C)ccnc1O[C@@H]1CC[C@@H](C)N(C(=O)c2ccccc2-n2nccn2)C1` [Example 1, Ethyl 4-methyl-2-{[(3R,6R)-6-methyl-1-{[2-(2H-1,2,3-triazol-2-yl)phenyl]carbonyl}piperidin-3-yl]oxy}pyridine-3-carboxylate], the IC50 at human orexin-2 receptor amounted to 8.3 nM; at hOX1R, 79 nM.

Take `COC(=O)c1c(C2CCC2)ccnc1O[C@@H]1CC[C@@H](C)N(C(=O)c2ccccc2-n2nccn2)C1` [Example 14, methyl 4-cyclobutyl-2-{[(3R,6R)-6-methyl-1-{[2-(2H-1,2,3-triazol-2-yl)phenyl]carbonyl}piperidin-3-yl]oxy}pyridine-3-carboxylate]: the results for the concentration for half-maximal inhibition (IC50) on human orexin-2 receptor and at hOX1R were 272 nM and 5580 nM, respectively.
